Test results reported in ChEMBL document CHEMBL3739326, “ent-Kaurene Glycosides from Ageratina cylindrica” (J Nat Prod, 2015).

Key:
Entamoeba histolytica = assay: Antiprotozoal activity against Entamoeba histolytica HM-1:IMSS; format: functional, organism-based
Giardia intestinalis = assay: Antiprotozoal activity against Giardia lamblia IMSS:1090:1; format: functional, organism-based; conditions: Giardia duodenalis

Row | Structure (SMILES) | IC50 (Entamoeba histolytica) [µM] | IC50 (Giardia intestinalis) [µM]
1 | C=C1[C@@H]2CC[C@H]3[C@]4(C)CCC[C@@](C)(C(=O)O[C@@H]5O[C@H](CO)[C@@H](O)[C@H](O)[C@H]5O)[C@H]4CC[C@]3(C2)[C@@H]1O[C@H]1O[C@@H](C)[C@@H](O)[C@@H](OC(C)=O)[C@@H]1O | 52.7 | 48.9
2 | C=C1[C@@H]2CC[C@H]3[C@]4(C)CCC[C@@](C)(C(=O)O)[C@H]4CC[C@]3(C2)[C@@H]1O[C@H]1O[C@@H](C)[C@@H](O)[C@@H](O)[C@@H]1O | 73.5 | 98.5
3 | C=C1[C@@H]2CC[C@H]3[C@]4(C)CCC[C@@](C)(C(=O)O[C@@H]5O[C@H](CO)[C@@H](O)[C@H](O)[C@H]5O)[C@H]4CC[C@]3(C2)[C@@H]1O[C@H]1O[C@@H](C)[C@@H](OC(C)=O)[C@@H](O)[C@@H]1O | 49.5 | 69.5
4 | C=C1[C@@H]2CC[C@H]3[C@]4(C)CCC[C@@](C)(C(=O)O[C@@H]5O[C@H](CO)[C@@H](O)[C@H](O)[C@H]5O)[C@H]4CC[C@]3(C2)[C@@H]1O[C@H]1O[C@@H](C)[C@@H](O)[C@@H](O)[C@@H]1O | 43.3 | 41.9
